According to patent EP0641797A1, “Cephem derivatives and antimicrobial agents containing the same” (KATAYAMA SEIYAKUSYO CO. Ltd., priority 1993, dated 1995):
In brackets after ≈: the same amount, converted by molar mass.

Experiments:
Test in all cases: MIC on standard strains, standard method of Japan Society of Chemotherapy
Type in all cases: cell-based
A. calcoaceticos T59 = settings: read-out: MIC
Method in brief: (§1)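 Test compounds were run alongside cefotiam and flomoxef controls, with growth inhibition assessed by the standard protocol of the Japan Society of Chemotherapy on 25 reference strains.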

A. faecalis ATCC 3750 = settings: Alcaligenes faecalis, ATCC3750, A. faecalis ATCC 3750; read-out: MIC
Method in brief: as §1

B. subtilis ATCC 6633 = settings: Bacillus subtilis, ATCC6633, B. subtilis ATCC 6633; read-out: MIC
Method in brief: as §1

C. freundii ATCC 8090 = settings: Citrobacter freundii, ATCC8090, C. freundii ATCC 8090; read-out: MIC
Method in brief: as §1

E. cloacae ATCC 13407 = settings: Enterobacter cloacae, ATCC13407, E. cloacae ATCC 13407; read-out: MIC
Method in brief: as §1

E. cloacae Nek39 = settings: Enterobacter cloacae, NEK39, E. cloacae Nek39; read-out: MIC
Method in brief: as §1

E. coli CSH2(RE45) = settings: Escherichia coli
Method in brief: (§2)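 Antibacterial activity is measured by the Japan Society of Chemotherapy method. Flomoxef and cefotiam act as control agents.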

E. coli CSH2(RK1) = settings: Escherichia coli
Method in brief: as §2

E. coli NHIJ JC-2 = settings: Escherichia coli, NHIJJC2
Method in brief: as §1

K. pneuminiae IFO 3317 = test system: K. pneuminiae IFO 3317
Method in brief: as §1

K. pneuminiae No. 42 = test system: K. pneuminiae No. 42
Method in brief: as §1

M. luteus ATCC 9341 = settings: Micrococcus luteus, ATCC9341
Method in brief: as §1

M. morganii IFO 3848 = settings: Morganella morganii, IFO3848
Method in brief: as §1

P. aeruginosa AKR17 = settings: Pseudomonas aeruginosa
Method in brief: as §1

P. aeruginosa NCTC 10490 = settings: Pseudomonas aeruginosa, NCTC10490, P. aeruginosa NCTC 10490; read-out: MIC
Method in brief: as §1

P. cepacia = settings: Burkholderia cepacia, read-out: MIC
Method in brief: as §1

P. mirabilis IFO 3849 = settings: Proteus mirabilis, IFO3849, P. mirabilis IFO 3849; read-out: MIC
Method in brief: as §1

P. vulugaris OX-19 = test system: P. vulugaris OX-19
Method in brief: as §1

S. aureus 167 = settings: Staphylococcus aureus; S. aureus 167 (MRSA)
Method in brief: as §1

S. aureus 195 = settings: Staphylococcus aureus; S. aureus 195 (MRSA)
Method in brief: as §1

S. aureus 209p JC-1 = settings: Staphylococcus aureus, 209P, read-out: MIC
Method in brief: as §1

S. aureus Smith = settings: Staphylococcus aureus, read-out: MIC
Method in brief: as §1

S. epidemidis IAM 1296 = test system: S. epidemidis IAM 1296
Method in brief: as §1

S. marcescens IAM 1184 = settings: Serratia marcescens, IAM1184, S. marcescens IAM 1184; read-out: MIC
Method in brief: as §1

S. marcescens No. 16-2 = settings: Serratia marcescens, NO.162
Method in brief: as §1

Row | SMILES | MIC (A. calcoaceticos T59) [µg/mL] | MIC (A. faecalis ATCC 3750) [µg/mL] | MIC (B. subtilis ATCC 6633) [µg/mL] | MIC (C. freundii ATCC 8090) [µg/mL] | MIC (E. cloacae ATCC 13407) [µg/mL] | MIC (E. cloacae Nek39) [µg/mL] | MIC (E. coli CSH2(RE45)) [µg/mL] | MIC (E. coli CSH2(RK1)) [µg/mL] | MIC (E. coli NHIJ JC-2) [µg/mL] | MIC (K. pneuminiae IFO 3317) [µg/mL] | MIC (K. pneuminiae No. 42) [µg/mL] | MIC (M. luteus ATCC 9341) [µg/mL] | MIC (M. morganii IFO 3848) [µg/mL] | MIC (P. aeruginosa AKR17) [µg/mL] | MIC (P. aeruginosa NCTC 10490) [µg/mL] | MIC (P. cepacia) [µg/mL] | MIC (P. mirabilis IFO 3849) [µg/mL] | MIC (P. vulugaris OX-19) [µg/mL] | MIC (S. aureus 167) [µg/mL] | MIC (S. aureus 195) [µg/mL] | further results
1 | Nc1nc(/C(=N/O)C(=O)N[C@@H]2C(=O)N3C(C(=O)[O-])=C(C[n+]4ccc(-c5nnco5)cc4)CS[C@H]23)cs1 [Ex. 18, 7β-[2-(2-aminothiazol-4-yl)-2-syn-hydroxyiminoacetsmido]-3-[4-(1,3,4-oxadiazol-2-yl)pyridinio]methyl-3-cephem-4-carboxylate] | 25 (≈ 47.3 µM) | 1.56 (≈ 2.95 µM) | 0.78 (≈ 1.48 µM) | 0.39 (≈ 0.738 µM) | 50 (≈ 94.6 µM) | > 100 | 0.39 (≈ 0.738 µM) | 6.25 (≈ 11.8 µM) | 0.2 (≈ 0.378 µM) | 0.2 (≈ 0.378 µM) | 1.56 (≈ 2.95 µM) | 0.2 (≈ 0.378 µM) | 0.05 (≈ 0.0946 µM) | > 100 | 12.5 (≈ 23.7 µM) | > 100 | 0.2 (≈ 0.378 µM) | 0.2 (≈ 0.378 µM) | 25 (≈ 47.3 µM) | 12.5 (≈ 23.7 µM) | MIC (S. aureus 209p JC-1): 0.78 µg/mL (≈ 1.48 µM); MIC (S. aureus Smith): 1.56 µg/mL (≈ 2.95 µM); MIC (S. epidemidis IAM 1296): 0.39 µg/mL (≈ 0.738 µM); MIC (S. marcescens IAM 1184): 0.39 µg/mL (≈ 0.738 µM); MIC (S. marcescens No. 16-2): > 100 µg/mL
2 | NC(=NO)c1ccc[n+](CC2=C(C(=O)[O-])N3C(=O)[C@@H](NC(=O)/C(=N\O)c4csc(N)n4)[C@H]3SC2)c1 [Ex. 19, 7β-[2-(2-aminothiazol-4-yl)-2-syn-hydroxyiminoacetamido]-3-[3-(1-amino-1-hydroxyiminomethyl)pyridinio]methyl-3-cephem-4-carboxylate] | 6.25 (≈ 12.1 µM) | 3.18 (≈ 6.13 µM) | 0.39 (≈ 0.752 µM) | 0.39 (≈ 0.752 µM) | 3.13 (≈ 6.04 µM) | 50 (≈ 96.4 µM) | 0.39 (≈ 0.752 µM) | 0.78 (≈ 1.5 µM) | 0.39 (≈ 0.752 µM) | 0.2 (≈ 0.386 µM) | 0.78 (≈ 1.5 µM) | 0.1 (≈ 0.193 µM) | 0.2 (≈ 0.386 µM) | > 100 | 3.13 (≈ 6.04 µM) | > 100 | 0.39 (≈ 0.752 µM) | 0.39 (≈ 0.752 µM) | 6.25 (≈ 12.1 µM) | 1.56 (≈ 3.01 µM) | MIC (S. aureus 209p JC-1): 0.2 µg/mL (≈ 0.386 µM); MIC (S. aureus Smith): 0.39 µg/mL (≈ 0.752 µM); MIC (S. epidemidis IAM 1296): 0.1 µg/mL (≈ 0.193 µM); MIC (S. marcescens IAM 1184): 0.2 µg/mL (≈ 0.386 µM); MIC (S. marcescens No. 16-2): 100 µg/mL (≈ 193 µM)
3 | NC(=NO)c1cc[n+](CC2=C(C(=O)[O-])N3C(=O)[C@@H](NC(=O)/C(=N\O)c4csc(N)n4)[C@H]3SC2)cc1 [Ex. 20, 7β-[2-(2-aminothiazol-4-yl)-2-syn-hydroxyiminoacetamido]-3-[4-(1-amino-1-hydroxyiminomethyl)pyridinio]methyl-3-cephem-4-carboxylate] | 6.25 (≈ 12.1 µM) | 0.78 (≈ 1.5 µM) | 0.2 (≈ 0.386 µM) | 0.2 (≈ 0.386 µM) | 12.5 (≈ 24.1 µM) | 50 (≈ 96.4 µM) | 0.2 (≈ 0.386 µM) | 0.39 (≈ 0.752 µM) | 0.2 (≈ 0.386 µM) | 0.1 (≈ 0.193 µM) | 0.39 (≈ 0.752 µM) | 0.025 (≈ 0.0482 µM) | 0.1 (≈ 0.193 µM) | > 100 | 0.78 (≈ 1.5 µM) | > 100 | 0.2 (≈ 0.386 µM) | 0.2 (≈ 0.386 µM) | 6.25 (≈ 12.1 µM) | 3.31 (≈ 6.38 µM) | MIC (S. aureus 209p JC-1): 0.2 µg/mL (≈ 0.386 µM); MIC (S. aureus Smith): 0.39 µg/mL (≈ 0.752 µM); MIC (S. epidemidis IAM 1296): 0.05 µg/mL (≈ 0.0964 µM); MIC (S. marcescens IAM 1184): 0.1 µg/mL (≈ 0.193 µM); MIC (S. marcescens No. 16-2): 100 µg/mL (≈ 193 µM)
4 | Nc1nc(/C(=N/O)C(=O)N[C@@H]2C(=O)N3C(C(=O)[O-])=C(C[n+]4ccc(-c5nccs5)cc4)CS[C@H]23)cs1 [Ex. 21, 7β-[2-(2-aminothiazol-4-yl)-2-syn-hydroxyiminoacetamido]-3-[4-(thiazol-2-yl)pyridinio]methyl-3-cephem-4-carboxylate] | 12.5 (≈ 23 µM) | 0.78 (≈ 1.43 µM) | 0.2 (≈ 0.368 µM) | 0.1 (≈ 0.184 µM) | 1.56 (≈ 2.87 µM) | 50 (≈ 92 µM) | 0.1 (≈ 0.184 µM) | 0.2 (≈ 0.368 µM) | 0.1 (≈ 0.184 µM) | 0.1 (≈ 0.184 µM) | 0.2 (≈ 0.368 µM) | 0.025 (≈ 0.046 µM) | 0.05 (≈ 0.092 µM) | > 100 | 6.25 (≈ 11.5 µM) | > 100 | 0.2 (≈ 0.368 µM) | 0.1 (≈ 0.184 µM) | 3.13 (≈ 5.76 µM) | 1.56 (≈ 2.87 µM) | MIC (S. aureus 209p JC-1): 0.2 µg/mL (≈ 0.368 µM); MIC (S. aureus Smith): 0.39 µg/mL (≈ 0.717 µM); MIC (S. epidemidis IAM 1296): 0.1 µg/mL (≈ 0.184 µM); MIC (S. marcescens IAM 1184): 0.1 µg/mL (≈ 0.184 µM); MIC (S. marcescens No. 16-2): 50 µg/mL (≈ 92 µM)
5 | Nc1nc(/C(=N/O)C(=O)N[C@@H]2C(=O)N3C(C(=O)[O-])=C(C[n+]4ccc(-c5cncs5)cc4)CS[C@H]23)cs1 [Ex. 22, 7β-[2-(2-aminothiazol-4-yl)-2-syn-hydroxyiminoacetamido]-3-[4-(thiazol-5-yl)pyridinio]methyl-3-cephem-4-carboxylate] | 12.5 (≈ 23 µM) | 1.56 (≈ 2.87 µM) | 0.2 (≈ 0.368 µM) | 0.1 (≈ 0.184 µM) | 0.78 (≈ 1.43 µM) | 25 (≈ 46 µM) | 0.1 (≈ 0.184 µM) | 0.2 (≈ 0.368 µM) | 0.1 (≈ 0.184 µM) | 0.05 (≈ 0.092 µM) | 0.1 (≈ 0.184 µM) | 0.025 (≈ 0.046 µM) | 0.025 (≈ 0.046 µM) | > 100 | 3.13 (≈ 5.76 µM) | > 100 | 0.1 (≈ 0.184 µM) | 0.1 (≈ 0.184 µM) | 1.56 (≈ 2.87 µM) | 0.78 (≈ 1.43 µM) | MIC (S. aureus 209p JC-1): 0.2 µg/mL (≈ 0.368 µM); MIC (S. aureus Smith): 0.2 µg/mL (≈ 0.368 µM); MIC (S. epidemidis IAM 1296): 0.1 µg/mL (≈ 0.184 µM); MIC (S. marcescens IAM 1184): 0.1 µg/mL (≈ 0.184 µM); MIC (S. marcescens No. 16-2): 25 µg/mL (≈ 46 µM)
